Source: patent US20230240290A1, “USE OF (Z)-3-HEXENYL ESTERS AND METHOD FOR PROTECTING PLANTS AGAINST PESTS” (UNIVERSITAT POLITÈCNICA DE VALÈNCIA, priority 2020, published 2023)

Experiments:
Assay type in all cases: in vivo
[1] = test system: Tetranychus urticae; assay: Development of Tetranychus urticae on exposed tomato plants; details: T. urticae, 21 days after release
Experimental: It was also studied whether the defensive activation induced by exposure to (Z)-3-hexenyl propanoate could influence the development of two highly important phytophages in tomato cultivation, the red spider, T. urticae, and the lepidoptera T. absoluta. The individuals used in these experiments came from the captive breeding of these species that are kept in the IVIA described above. The exposure time of the plant to the volatile was tested on both phytophages in two different ways, one where the plant was only exposed to the volatile for 24 hours and then the herbivore to be assayed was immediately released, and the other where the volatile was permanently exposed throughout the experiment.
For this purpose, two climatic chambers were used under the same environmental conditions [25±2° C., 65±5% HR and 14:10 h (L:D) photoperiod], wherein, to avoid interference between the volatiles, one was assigned to the (Z)-3-hexenyl propanoate treatments and one to the control treatment. […]
Eight tomato plants (Lycopersicon esculentum cv. Moneymaker) were introduced in each cage. […] Naked eye sampling was carried out seven, 14, and 21 days after the release of T. urticae, where the total number of T. urticae females in each plant was counted.

[2] = test system: PIN2 (marker gene for the jasmonic acid signaling pathway); assay: Semi-field release assay, transcriptional response of PIN2 in tomato plants; details: 4 weeks
Experimental: Two different types of polymeric emitters were used to test the activation level that different emission levels of (Z)-3-hexenyl propionate can provide: 4-mL low-density (LD) polyethylene vial and 4-mL high-density (HD) polyethylene vial. The highest emission level (5 mg/day) was achieved through previous laboratory studies with LD dispensers loaded with 20 mg of the pure substance. The lowest emission level (0.01 mg/day) was provided by HD vials loaded with a 1:100 mixture of (Z)-3-hexenyl propionate and paraffinic oil (0.02:2; g:g). The emission kinetics of the emitters used during the experiments was controlled by studying weight loss (gravimetric method). […] The difference in weight recorded in each period will be the emitted quantity of the substance for each type of dispenser. To obtain the mean emission level of each dispenser, the recorded weights (y) are related to the aging time (x) using a multiple regression analysis.
Once the mentioned emission levels have been established, 5 and 0.01 mg/day/dispenser, tomato plants were exposed to the different emission levels through an experiment under semi-field conditions in a glass greenhouse. […] Environmental conditions were monitored and recorded using a Mithra clima data logger (ver. 1.01.03, Priva nutricontrol Ibérica S.L). […]

[3] = test system: Diaphorina citri; assay: Citrus field assay with sentinel Murraya paniculata seedlings with and without dispenser
Experimental: A Valencia orange field with a high presence of receptive shoots and a population of D. citri adults located in the experimental fields of SWFREC (University of Florida) was selected. […] Sentinel plants that were hung inside the tree canopy were used. The sentinel plants were seedlings of Murraya paniculata with shoots receptive to the laying of D. citri. 7 seedlings with a dispenser (polymeric dispenser that was loaded with 1.5 ml of (Z)-3-hexenyl propanoate) and 7 seedlings without a dispenser were used. Each seedling was distributed in the field following a random block design (using a row of trees as a block), and one seedling with a dispenser and another one without was placed in each block. The seedlings were located at a minimum distance of 50 meters from each other to avoid any edge effect.
After 4 days of placing the seedlings, these were collected from the field and taken to the laboratory, where the number of eggs per shoot in each of the seedlings was counted under a binocular loupe.

[4] = test system: plant; assay: Growth and production of plants exposed to the volatile

CC/C=C\CCOC(=O)CC [(Z)-3-hexenyl propanoate]
Reduction in the number of mites per plant with respect to the control ([1]; plant exposed for 24 h before release): 50.3±6.3%
Reduction in the number of mites per plant with respect to the control ([1]; plant exposed throughout the entire experiment): 83.9±5.0%
Transcriptional response of PIN2 (jasmonic acid pathway) ([2]; 0.01 mg/day emission, HD polyethylene vial): did not affect exposed plants
Transcriptional response of PIN2 (jasmonic acid pathway) ([2]; 5 mg/day emission, LD polyethylene vial): significantly activated
Reduction of D. citri (laying, eggs per shoot) ([3]; Valencia orange field, Murraya paniculata sentinel seedlings, dispenser with 1.5 ml, 4 days): more than 70%
Laying of D. citri ([3]; citrus plant exposed to the volatile, summary statement): reduced by more than half
Growth or production of the plant [4]: does not reduce the growth or production of the plant
